In ChEMBL document CHEMBL1154198, “Chemical genetics of Plasmodium falciparum” (Nature, 2010):

What was measured:
[1] = tested on: Plasmodium falciparum; assay: ST_JUDE: Plasmodium falciparum 3D7 EC50 (uM) as measured by SYBR green dye; format: functional, organism-based
[2] = tested on: Plasmodium falciparum; assay: ST_JUDE: Plasmodium falciparum K1 EC50 (uM) as measured by SYBR green dye; format: functional, organism-based

Row | EC50 [1] [µM] | EC50 [2] [µM] | Compound
1 | > 15 | > 15 | O=C(Nc1cccc(C(F)(F)F)c1)c1cc2ccccc2oc1=O
2 | 1.95 | 6.27 | CC(=O)Nc1ccc(S(=O)(=O)Nc2ccc(Nc3nc(C)cc(N(C)C)n3)cc2)cc1
3 | 0.62 | 6.32 | Cc1cc(N2CCN(C)CC2)nc2ccc(NC(=O)c3cccc(N(C)C)c3)cc12
4 | > 15 | 3.83 | CN1CCN(c2ccc(-c3cccc(NC(=O)c4cccc([N+](=O)[O-])c4)c3)nn2)CC1
5 | 0.754 | 3.6 | Cc1ccc(Nc2nc(NCc3ccccc3)c3ccccc3n2)cc1
6 | 2.88 | 2.48 | CCCC(=O)NC(c1cccc([N+](=O)[O-])c1)c1ccc2cccnc2c1O (stereo not drawn)
7 | > 15 | 3.36 | Cc1ccc(C)c(C(C)NC(=S)Nc2ccc([N+](=O)[O-])cc2)c1 (stereo not drawn)
8 | 4.7 | 2.49 | CCCOc1ccc(-c2[nH]ncc2Oc2ccccc2)c(O)c1
9 | 2.29 | 2.01 | CCc1cccc(NC(=O)C2c3ccccc3C(=O)N(C3CCCC3)C2c2cccs2)c1 (stereo not drawn)
10 | > 15 | > 15 | CCOC(=O)C1=C(c2ccccc2)N=C(S)NC1c1cc(Cl)ccc1OC (stereo not drawn)
11 | > 15 | > 15 | CCN(CC)c1cc(C)c2cc(NC(=O)c3ccc(F)cc3)ccc2n1
12 | 1.48 | 6.68 | Cc1cc(N2CCN(C)CC2)nc2ccc(NC(=S)NCCCN3CCc4ccccc4C3)cc12
13 | 6.92 | 9.29 | CCCC(=O)NC(c1ccc(Cl)cc1)c1c(OC(C)=O)ccc2ccccc12 (stereo not drawn)
14 | 0.812 | 3.83 | Cc1cc(C)c2nc(C)cc(Nc3cccc(Cl)c3)c2c1
15 | 0.437 | > 15 | CCOc1ccccc1/C=C/C(=O)Nc1ccc2nc(N3CCN(C)CC3)cc(C)c2c1
16 | > 15 | > 15 | O=C(CCc1ccccc1)N(Cc1cccnc1)c1nc2ccc(F)cc2s1
17 | 4.36 | 5.12 | Cc1ccc(-c2nc(C(=O)N(C)Cc3cccnc3)cs2)cc1F
18 | 1.4 | 0.55 | C=CCN1C=CC(=Cc2ccc3cc(C)ccc3[n+]2CC)C=C1
19 | 0.169 | 0.217 | CCOc1cccc(C(=O)Nc2nonc2-c2ccc(OCC)c(OCC)c2)c1
20 | 2.46 | > 15 | O=C(Nc1ccccc1O)c1ccc(-c2ccc(Cl)cc2Cl)o1
21 | 2.36 | 2.33 | O=C(C1CCCCC1)N(Cc1cccnc1)c1nc2c(Cl)cccc2s1
22 | 0.836 | 1.81 | Cc1cccc(-n2ccnc2SCC(=O)Nc2cccc(C(F)(F)F)c2)c1C
23 | > 15 | > 15 | Cc1cccc2sc(NNC(=O)c3ccc(S(=O)(=O)N4CCCCC4C)cc3)nc12 (stereo not drawn)
24 | > 15 | 3.82 | Cc1ccc2sc(NNC(=O)c3ccc(S(=O)(=O)N(C)C)cc3)nc2c1C

More lines, now with the values behind:

Row | Compound | EC50 [1] [µM] | EC50 [2] [µM]
25 | COc1ccccc1C1CC(c2ccccc2)=NN1C(=O)c1ccccc1 (stereo not drawn) | 0.855 | 4.32
26 | CN1CCN(c2cc(N3CCN(C)CC3)c([N+](=O)[O-])cc2C2Nc3ccc4ccccc4c3C3=C2C(=O)CC(C)(C)C3)CC1 (stereo not drawn) | 3.44 | > 15
27 | O=C(O)/C=C1\SC(=O)NC1=O | > 15 | > 15
28 | CN1c2ccccc2N(C)C1c1ccc(Sc2ccc(C3N(C)c4ccccc4N3C)o2)o1 | > 15 | 1.65
29 | CCN(CC)CCn1c(=N)n(CCOc2ccc(Cl)cc2Cl)c2ccccc21 | > 15 | 7.48
30 | CSc1nc(N)c2c(n1)N=C1CC(C)(C)CC(O)=C1C2c1cccs1 (stereo not drawn) | > 15 | > 15
31 | COc1ccc(/C=C(\C#N)c2nn(CCO)c(N)c2C#N)cc1 | > 15 | > 15
32 | COc1cccc(Nc2nc(N3CCN(CCO)CC3)nc3c2cnn3-c2ccccc2)c1 | 3.31 | 4.71
33 | Cc1ccc(CN2CCN(Cc3c(C)nn(C)c3Cl)CC2CCO)cc1 (stereo not drawn) | > 15 | > 15
34 | Cc1nc2ccc(OCC(C)C)cc2c(O)c1CN(C)C1CCN(C)CC1 | > 15 | > 15
35 | N#Cc1cccc(NC(=O)C2c3ccccc3C(=O)N(C3CCCC3)C2c2cccs2)c1 (stereo not drawn) | 0.188 | 0.253
36 | Cc1cc(C)c(C)c(OCCCCCCN2CCCC2)c1 | > 15 | > 15
37 | CCOC(=O)c1c(CSC(=N)N)n(-c2ccccc2)c2cc(Br)c(OC(C)=O)cc12 | 0.749 | 2.9
38 | COC(=O)C1C(=O)C2=C(CC1C)NC(=O)CC2c1ccc([N+](=O)[O-])cc1 (stereo not drawn) | 3.01 | 1.66
39 | CCO/C(O)=C1\C(CC)=NC2=C(C(=O)CC(C)(C)C2)C1c1ccc(Cl)cc1Cl (stereo not drawn) | 1.33 | 1.22
40 | CCOc1ccccc1N(CC(=O)Nc1ccccc1C(C)C)S(=O)(=O)c1ccccc1 | > 15 | > 15
41 | CN(CCO)CCCCOc1ccc2c(c1)C(=O)c1cc(OCCCCN(C)CCO)ccc1-2 | > 15 | 3.64
42 | O=C(Nc1ccc(Cl)c(Cl)c1)Nc1ccc(Cl)c([N+](=O)[O-])c1 | > 15 | > 15
43 | COc1ccc(C2CC(=O)C3=C(C2)NC(=O)CC3c2ccc(SC)cc2)cc1OC (stereo not drawn) | 3.65 | 4.79
44 | CCc1ccc(Oc2c(C(F)(F)F)oc3c(CN4CCOCC4)c(O)ccc3c2=O)cc1 | > 15 | > 15
